Results published in patent US6603023B2 (priority 1996, dated 2003).
Read-outs that look alike come from different tables or passages of the source.

Legend:
[1] = tested on: CCRF-CEM human T-cell acute lymphoblastic leukemia cell line; assay: XTT cytotoxicity (cell growth inhibition), CCRF-CEM; settings: for Rel. Value (potency relative to Epo B): CCRF-CEM leukemic cells
Description: The DC-3F hamster lung fibroblast cell line and its actinomycin D-selected sublines (DC-3F/ADII and DC-3F/ADX) were obtained from the Memorial Sloan-Kettering Cancer Center (MSKCC).
(§1) The drug-resistant cell lines were continuously cultured in the presence of the selecting agent, AD, DX, VBL or VM to maintain the drug resistant phenotypes. […] All cells were cultured in RPMI 1640-10% FBS at 37° C. 5% CO2 (see below).
(§2) The cells were cultured at an initial density of 5×10^4 cells/mL. They were maintained in a 5% CO2-humidified atmosphere at 37° C. in RPMI-1640 medium (GIBCO-BRL, Gaithersburg, Md.) containing penicillin (100 U/mL), streptomycin ([…]) (GIBCO-BRL) and 10% heat inactivate fetal bovine serum. Culture for cell suspension (such as for CCRF-CEM, P388 and sublines), were performed by the XTT-microculture tetrazonium method (Scudiero, D. A. et al., Cancer Res. 1988, 48, 4827-4833) in duplicate in 96-well microtiter plates.
(§3) 2′,3′-Bis(methoxy-4-nitro-5-sufophenyl)-5-[(phenylamino)carbonyl]2H-tetrazolium hyudroxide (XTT) was prepared at 1 mg/mL in prewarmed (37° C.) medium without serum. Phenazine methosulfate (PMS) and fresh XTT were mixed together to obtain 0.025 mM PMS-XTT solution (25 μL of the stock 5 mM PMS was added per 5 mL of 1 mg/mL XTT). Following a 72 h incubation, 50 μL of the assay aliquots were added to each well of the cell culture. After incubation at 37° C. for 4 h, absorbance at 450 nm and 630 nm was measured with a microplate reader (EL340, Bio-Tek Instruments, Inc., Winooski, Vt.).

[2] = tested on: CCRF-CEM/VBL100; assay: cells; type: cell-based, human; settings: read-out: IC50
Description: as §1, §2, §3

[3] = tested on: Human Lymphoblastic Leukemia CCRF-CEM; assay: CCRF-CEM xenograft in nude mice, i.v. 6 h infusion; type: in vivo; settings: for Average Body Weight, Day 21: initial weight
[4] = tested on: human mammary carcinoma MX-1 xenograft
Description: DMSO was used as a vehicle for epothilones. Each mouse received ≦40 μL DMSO in all experiments.
Athymic nude mice (nu/nu) were used for MX-1 and MCF-7/Adr human mammary carcinoma xenografts. Mice were obtained from Taconic Laboratory Animals and Service (Germantown, N.Y.: outbred, Swiss background).

[5] = Table 5, CCRF-CEM/VLB, single determinations
[6] = Dose DesoxyepoB 40, Taxol 20, i.v. infusion 6 hr on day 21,23,25,27
[7] = Table 26, Dose Q2D x 4: DesoxyepoB 40, Taxol 20
[8] = high doses: dEpoB 25, EpoB 0.6, Taxol 10, Vinblastine 0.4 mg/kg i.p. Q2D from day 7
[9] = low doses: dEpoB 15, EpoB 0.3, Taxol 5, Vinblastine 0.2 mg/kg i.p. Q2D day 7-15

SMILES: CC[C@@]12CCC[C@H](C)[C@H](O)[C@@H](C)C(=O)C(C)(C)[C@@H](O)CC(=O)O[C@H](/C(C)=C/c3csc(C)n3)C[C@@H]1O2 [#27]
- IC50 [1]: 0.001 µM
- fold more potent than Taxol ([1]; CCRF-CEM cells): > 2 fold
- IC50 ([1]; Table 5, single determinations): 0.001 µM
- IC50 ([1]; Table 7, CEM): 0.001 µM
- IC50 [2, 5]: 0.0072 µM
- IC50 ([2]; Table 7, CEM/VBL): 0.0072 µM
- IC50 [2]: 0.0072 µM

SMILES: C/C1=C/C[C@@H](/C(C)=C/c2csc(C)n2)OC(=O)C[C@H](O)C(C)(C)C(=O)[C@H](C)[C@@H](O)[C@@H](C)CCC1 [DesoxyepoB]
- Average Body Weight Changes, Day 23 [3, 6]: -1.4 g
- Average Body Weight Changes, Day 25 [3, 6]: -3.6 g
- Average Body Weight Changes, Day 27 [3, 6]: -3.9 g
- Average Body Weight Changes, Day 29 [3, 6]: -5.2 g
- Average Body Weight Changes, Day 31 [3, 6]: -4.2 g
- Average Body Weight Changes, Day 33 [3, 6]: -3.1 g
- Average Body Weight Changes, Day 35 [3, 6]: -2.3 g
- Average Body Weight Changes, Day 37 [3, 6]: -1.2 g
- Average Body Weight Changes, Day 39 [3, 6]: -0.2 g
- Average Body Weight Changes, Day 41 [3, 6]: +0.9 g
- Average Tumor Size (T/C), Day 21 [3, 6]: 1.10 T/C
- Average Tumor Size (T/C), Day 23 [3, 6]: 0.73 T/C
- Average Tumor Size (T/C), Day 25 [3, 6]: 0.31 T/C
- Average Tumor Size (T/C), Day 27 [3, 6]: 0.09 T/C
- Average Tumor Size (T/C), Day 29 [3, 6]: 0 T/C
- Average Tumor Size (T/C), Day 31 [3, 6]: 0 T/C
- Average Tumor Size (T/C), Day 33 [3, 6]: 0 T/C
- Average Tumor Size (T/C), Day 35 [3, 6]: 0 T/C
- Proportion of Tumor Disappearance (n/total), Day 21 [3, 6]: 0/3
- Proportion of Tumor Disappearance (n/total), Day 23 [3, 6]: 0/3
- Proportion of Tumor Disappearance (n/total), Day 25 [3, 6]: 0/3
- Proportion of Tumor Disappearance (n/total), Day 27 [3, 6]: 0/3
- Proportion of Tumor Disappearance (n/total), Day 29 [3, 6]: 3/3
- Proportion of Tumor Disappearance (n/total), Day 31 [3, 6]: 3/3
- Proportion of Tumor Disappearance (n/total), Day 33 [3, 6]: 3/3
- Proportion of Tumor Disappearance (n/total), Day 35 [3, 6]: 3/3
- Proportion of Tumor Disappearance (n/total), Day 37 [3, 6]: 1/3
- Proportion of Tumor Disappearance (n/total), Day 39 [3, 6]: 1/3
- Proportion of Tumor Disappearance (n/total), Day 41 [3, 6]: 0/3
- Average Body Weight Change, Day 23 [3, 7]: -1.4 g
- Average Body Weight Change, Day 25 [3, 7]: -3.6 g
- Average Body Weight Change, Day 27 [3, 7]: -3.9 g
- Average Body Weight Change, Day 29 [3, 7]: -5.2 g
- Average Body Weight Change, Day 31 [3, 7]: -4.2 g
- Average Tumor Size (T/C), Day 23 [3, 7]: 0.68 T/C
- Average Tumor Size (T/C), Day 25 [3, 7]: 0.30 T/C
- Average Tumor Size (T/C), Day 27 [3, 7]: 0.09 T/C
- Average Tumor Size (T/C), Day 29 [3, 7]: 0 T/C
- Average Tumor Size (T/C), Day 31 [3, 7]: 0 T/C
- Tumor Disappearance [3, 7]: 3/3
- Average Body Weight, Day 21 [3, 7]: 26.6 g
- Average Body Weight, Day 21 [3, 6]: 26.6 g

SMILES: C/C1=C/C[C@@H](/C(C)=C/c2csc(C)n2)OC(=O)C[C@H](O)C(C)(C)C(=O)[C@H](C)[C@@H](O)[C@@H](C)CCC1 [Desoxyepothione B]
- cured on day 35 (no detectable tumor) ([4]; Desoxyepothilone B 25 mg/kg i.p. Q2D day 7-15): (1/6 cured on day 35)
- Average Body Weight (change), Day 11 [4, 8]: +0.4 g
- Average Body Weight (change), Day 13 [4, 8]: +0.7 g
- Average Body Weight (change), Day 15 [4, 8]: +1.0 g
- Average Body Weight Change, Day 17 [4, 8]: +0.7 g
- Average Tumor Volume (T/C), Day 11 [4, 8]: 0.38 T/C
- Average Tumor Volume (T/C), Day 13 [4, 8]: 0.11 T/C
- Average Tumor Volume (T/C), Day 15 [4, 8]: 0.05 T/C
- Average Tumor Volume (T/C), Day 17 [4, 8]: 0.04 T/C
- Note: died (mice died/total) [4, 8]: 0/6 died
- Average Body Weight, Day 7 ([4]; initial weight, first treatment day, high doses: dEpoB 25, EpoB 0.6, Taxol 10, Vinblastine 0.4 mg/kg i.p. Q2D from day 7): 27.0 g
- Average Body Weight (change), Day 11 [4, 9]: +0.8 g
- Average Body Weight (change), Day 13 [4, 9]: +1.1 g
- Average Body Weight (change), Day 15 [4, 9]: +1.6 g
- Average Body Weight Change, Day 17 [4, 9]: +1.5 g
- Average Tumor Volume (T/C), Day 11 [4, 9]: 0.65 T/C
- Average Tumor Volume (T/C), Day 13 [4, 9]: 0.46 T/C
- Average Tumor Volume (T/C), Day 15 [4, 9]: 0.49 T/C
- Average Tumor Volume (T/C), Day 17 [4, 9]: 0.41 T/C
- Note: died (mice died/total) [4, 9]: 0/6 died

SMILES: CC/C1=C/C[C@@H](/C(C)=C/c2csc(C)n2)OC(=O)C[C@H](O)C(C)(C)C(=O)[C@H](C)[C@@H](O)[C@@H](C)CCC1 [#25]
- IC50 [1]: 0.021 µM
- Rel. Value (potency relative to Epo B) [1]: 1/60
- IC50 ([1]; Table 7, CEM): 0.0212 µM
- IC50 [2, 5]: 0.077 µM
- IC50 ([2]; Table 7, CEM/VBL): 0.077 µM
- IC50 [2]: 0.077 µM

SMILES: CCC1=CCC(C(C)=Cc2csc(C)n2)OC(=O)CC(O)C(C)(C)C(=O)C(C)C(O)C(C)CCC1 (stereo not shown) [#26]
- IC50 [1]: 0.005 µM
- Rel. Value (potency relative to Epo B) [1]: 1/157
- IC50 ([1]; Table 5, single determinations): 0.055 µM
- IC50 ([1]; Table 7, CEM): 0.0545 µM
- IC50 [2, 5]: 0.197 µM
- IC50 ([2]; Table 7, CEM/VBL): 0.197 µM
- IC50 [2]: 0.197 µM

SMILES: C/C1=C/C[C@@H](/C(C)=C/c2ccccc2)OC(=O)C[C@H](O)C(C)(C)C(=O)[C@H](C)[C@@H](O)[C@@H](C)CCC1 [#22]
- IC50 ([1]; Table 5, single determinations): 0.098 µM
- IC50 ([1]; Table 7, CEM): 0.098 µM
- IC50 [2, 5]: 0.146 µM
- IC50 ([2]; Table 7, CEM/VBL): 0.146 µM
- IC50 [2]: 0.146 µM

SMILES: CCC/C1=C\C[C@@H](/C(C)=C/c2csc(C)n2)OC(=O)C[C@H](O)C(C)(C)C(=O)[C@H](C)[C@@H](O)[C@@H](C)CCC1 [#17]
- IC50 [1]: 0.09 µM
- Rel. Value (potency relative to Epo B) [1]: 1/257
- IC50 ([1]; Table 5, single determinations): 0.09 µM
- IC50 ([1]; Table 7, CEM): 0.09 µM
- IC50 [2, 5]: 0.254 µM
- IC50 ([2]; Table 7, CEM/VBL): 0.254 µM
- IC50 [2]: 0.254 µM
